From patent US7034000B2, “Peptides derived from the human amyloid precursor protein” (The Brigham and Women's Hospital, Inc., priority 2000, dated 2006)
Each block holds one molecule with its values, some of them ahead of it.

Assay: ferrozine based iron oxidation (ferroxidase) assay
Type: biochemical
Conditions: for ferroxidase activity when synthesized as a distinct peptide: statement in summary, no values; for Vmax of iron oxidation: first set, 6.5 nM of protein; for Vmax, rate of iron oxidation: another set of ferrozine-based assays, 0.5 μM each
Protocol: Computer-based alignments of APP and H-ferritin were run using the Gap and Bestfit sequence alignment programs for Vax software. […] Bovine serum albumin (BSA) served as a negative control for these experiments since 6.5 μM BSA provided a 5-fold lower apparent rate of iron oxidation (an apparent reaction rate of 0.1 μM iron oxidized per minute). It was concluded that purified, secreted APP ectodomain specifically catalyzes the oxidation of 100-fold more iron per minute than the amount of APP present. This is an indication that APP harbors one or more sites for catalytic iron oxidation.
Using synthetic peptides, it was confirmed that sequences overlapping the newly identified FOX-1 domain in APP function as intrinsic ferroxidases. A peptide designated as “A2” (coding for residues 316 to 337 in APP-695)was tested. […] Ceruloplasmin (Cp) was used as a positive control since Cp is a known copper-dependent iron oxidase. […] The standard error for each of these reactions was less than 5%.
The known RERMS domain of APP (319 to 335 with respect to APP-695) is a cytoprotective region of APP and overlaps the A2 to peptide described above. […] The 827 sequence is HRBRMSQVMREWEEAERQAKNL (SEQ ID NO: 6), encoding 9 amino terminal amino acids that overlap with the RERMS peptide. In addition, 827 has 13 unique amino acids that align with the ferritin iron oxidase domain, as present in FOX-1. […] It was concluded that peptides spanning sequences from 316 to 346 of APP-695 can be used as agents to protect cells from iron catalyzed cellular damage.

Molecule: APP: purified, secreted human amyloid precursor protein ectodomain
Vmax of iron oxidation: 0.5 µM/min
iron oxidized per minute relative to the amount of APP present (purified, secreted APP ectodomain): 100 fold

Molecule: A2 peptide: synthetic peptide coding for residues 316 to 337 in APP-695, overlaps RERMS domain (CAPFFYGGCGGNRNNFDTEEYC; APP695; UniProt P05067 316-337, looked up, fragment)
rate of iron oxidation compared with BSA or RNase-A (0.5 μM): significantly higher
Vmax, rate of iron oxidation: 2.78 µM/min
iron oxidase activity Vmax (second set, 0.5 μM peptide): 2.96 μM/min/0.5 μM peptide

Molecule: HRERMSQVMREWEEAERQAKNL (listed as Homo sapiens) [827 peptide, first 13 N-terminal amino acids of FOX-1 fused to nine amino acids from the RERMS domain of APP-695 (327–348)]
Vmax, rate of iron oxidation: 7.36 µM/min

B1: RNaseTI: control protein in the second set of ferrozine-based assays (protein, UniProt P00651 27-130, looked up)
Guanyl-specific ribonuclease …: ACDYTCGSNCYSSSDVSTAQAAGYQLHEDGETVGSNSYPHKYNNYEGFDFSVSSPYYEWPILSSGDVYSGGSPGADRVVFNENNQLAGVITHTGASGNNFVECT
Vmax, rate of iron oxidation: 1.05 µM/min

B2: RNase-A: negative control protein (protein, UniProt P61823 27-150, looked up)
Ribonuclease pancreatic: KETAAAKFERQHMDSSTSAASSSNYCNQMMKSRNLTKDRCKPVNTFVHESLADVQAVCSQKNVACKNGQTNCYQSYSTMSITDCRETGSSKYPNCAYKTTQANKHIIVACEGNPYVPVHFDASV
apparent Vmax (second set, 0.5 μM, n=6, negative control): 1.96 µM iron/min/0.5 µM peptide

B3: Ceruloplasmin: known copper-dependent iron oxidase (ferroxidase), positive control (protein, UniProt P00450 20-1065, looked up)
Ceruloplasmin: KEKHYYIGIIETTWDYASDHGEKKLISVDTEHSNIYLQNGPDRIGRLYKKALYLQYTDETFRTTIEKPVWLGFLGPIIKAETGDKVYVHLKNLASRPYTFHSHGITYYKEHEGAIYPDNTTDFQRADDKVYPGEQYTYMLLATEEQSPGEGDGNCVTRIYHSHIDAPKDIASGLIGPLIICKKDSLDKEKEKHIDREFVVMFSVVDENFSWYLEDNIKTYCSEPEKVDKDNEDFQESNRMYSVNGYTFGSLPGLSMCAEDRVKWYLFGMGNEVDVHAAFFHGQALTNKNYRIDTINLFPATLFDAYMVAQNPGEWMLSCQNLNHLKAGLQAFFQVQECNKSSSKDNIRGKHVRHYYIAAEEIIWNYAPSGIDIFTKENLTAPGSDSAVFFEQGTTRIGGSYKKLVYREYTDASFTNRKERGPEEEHLGILGPVIWAEVGDTIRVTFHNKGAYPLSIEPIGVRFNKNNEGTYYSPNYNPQSRSVPPSASHVAPTETFTYEWTVPKEVGPTNADPVCLAKMYYSAVEPTKDIFTGLIGPMKICKKGSLHANGRQKDVDKEFYLFPTVFDENESLLLEDNIRMFTTAPDQVDKEDEDFQESNKMHSMNGFMYGNQPGLTMCKGDSVVWYLFSAGNEADVHGIYFSGNTYLWRGERRDTANLFPQTSLTLHMWPDTEGTFNVECLTTDHYTGGMKQKYTVNQCRRQSEDSTFYLGERTYYIAAVEVEWDYSPQREWEKELHHLQEQNVSNAFLDKGEFYIGSKYKKVVYRQYTDSTFRVPVERKAEEEHLGILGPQLHADVGDKVKIIFKNMATRPYSIHAHGVQTESSTVTPTLPGETLTYVWKIPERSGAGTEDSACIPWAYYSTVDQVKDLYSGLIGPLIVCRRPYLKVFNPRRKLEFALLFLVFDENESWYLDDNIKTYSDHPEKVNKDDEEFIESNKMHAINGRMFGNLQGLTMHVGDEVNWYLMGMGNEIDLHTVHFHGHSFQYKHRGVYSSDVFDIFPGTYQTLEMFPRTPGIWLLHCHVTDHIHAGMETTYTVLQNEDTKSG
Vmax, rate of iron oxidation: 6.41 µM/min
Vmax of iron oxidation: 5 µM/min
reaction velocity (Vmax) (second set, 0.5 μM protein, n=6, positive control): 4.2 µM iron/min/0.5 µM protein

Other lines, results leading:

ferroxidase activity when synthesized as a distinct peptide: has ferroxidase activity
Molecule: DGDEVEEEAEPYEEATERTTSIA (listed as Homo sapiens) [FOX-2, peptide corresponding to the complete FOX-2 domain, between amino acids 250 and 273 in APP-695]

ferroxidase activity when synthesized as a distinct peptide: has ferroxidase activity
Molecule: REWEEAERQAKNLPKADKKAVIQH (listed as Homo sapiens) [FOX-1]
